How the values were obtained:
human VR1 [1] = molecular target: T1, human VR1 (Homo sapiens, UniProt Q8NER1); experiment: pH-based assay of human VR1 (FLIPR calcium influx); format: cell-based; conditions: agonist buffer pH 5.5, HEK293-EcR cells expressing human VR1, n=4
T1 construct: expressed in transfected cells
Experimental: (§1) Human VR1 Cloning: Human spinal cord RNA (commercially available from Clontech, Palo Alto, Calif.) was used. Reverse transcription was conducted on 1.0 μg total RNA using Thermoscript Reverse Transcriptase (commercially available from Invitrogen) and oligo dT primers as detailed in its product description. Reverse transcription reactions were incubated at 55° C. for 1 h, heat-inactivated at 85° C. for 5 min, and RNase H-treated at 37° C. for 20 min.
(§2) Human VR1 cDNA sequence was obtained by comparison of the human genomic sequence, prior to annotation, to the published rat sequence. Intron sequences were removed and flanking exonic sequences were joined to generate the hypothetical human cDNA. Primers flanking the coding region of human VR1 were designed as follows: forward primer, […]; and reverse primer, […]. […]
(§3) Generation of Inducible Cell Lines: Unless noted otherwise, cell culture reagents were purchased from Life Technologies of Rockville, Md. […] On the day of assay, cells were loaded with Fluo-4 (a calcium-sensitive dye that is commercially available from Molecular Probes) and CAP-mediated calcium influx was measured using a FLIPR as described below. […]

human VR1 [2] = molecular target: T1, human VR1; experiment: Capsaicin-based assay of human VR1 (FLIPR calcium influx); format: cell-based; conditions: activation by capsaicin (400 nM), HEK293-EcR cells expressing human VR1, n=3
Experimental: as §1, §2, §3

T1 sequence (Q8NER1 whole entry): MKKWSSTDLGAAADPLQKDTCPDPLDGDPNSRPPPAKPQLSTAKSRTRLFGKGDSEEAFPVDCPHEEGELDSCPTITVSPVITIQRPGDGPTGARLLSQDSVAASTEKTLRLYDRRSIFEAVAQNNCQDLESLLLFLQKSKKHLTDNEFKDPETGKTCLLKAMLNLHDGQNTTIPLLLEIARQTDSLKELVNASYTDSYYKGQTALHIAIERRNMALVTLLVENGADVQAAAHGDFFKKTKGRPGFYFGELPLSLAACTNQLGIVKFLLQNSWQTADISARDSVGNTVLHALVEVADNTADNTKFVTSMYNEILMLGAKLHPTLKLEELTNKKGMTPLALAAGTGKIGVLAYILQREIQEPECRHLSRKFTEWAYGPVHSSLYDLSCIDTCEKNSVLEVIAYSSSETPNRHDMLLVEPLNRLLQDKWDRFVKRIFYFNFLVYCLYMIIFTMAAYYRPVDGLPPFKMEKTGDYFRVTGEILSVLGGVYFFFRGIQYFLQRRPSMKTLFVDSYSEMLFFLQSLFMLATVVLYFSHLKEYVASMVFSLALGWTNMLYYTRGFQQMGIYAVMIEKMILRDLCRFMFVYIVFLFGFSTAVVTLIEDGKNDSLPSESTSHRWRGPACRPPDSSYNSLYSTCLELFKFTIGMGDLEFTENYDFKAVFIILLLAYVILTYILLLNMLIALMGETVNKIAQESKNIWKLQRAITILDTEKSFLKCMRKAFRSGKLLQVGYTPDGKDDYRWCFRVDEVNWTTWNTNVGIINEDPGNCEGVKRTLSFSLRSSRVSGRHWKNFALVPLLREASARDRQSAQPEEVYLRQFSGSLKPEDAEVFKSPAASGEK

IC50 (human VR1 [1]): 826 ± 248 nM
IC50 (human VR1 [2]): 65.5 ± 17.3 nM
Compound: Cc1cccnc1-c1ccc(C(=O)Nc2ccc(C(C)(C)C)cc2)nc1 [E35(a)]
